Experimental data: article PMC8157280 (Pharmaceutics, 2021)
Structures can show the parent of a compound that is named as a salt.

Experiments:
[1] = system: Sprague-Dawley rats; assay: GHB-induced respiratory depression, whole-body plethysmography; conditions: for Respiratory depression (in words): ketamine alone, or naloxone 2 mg/kg i.v. with or without SCH50911 10 mg/kg given 5 min after GHB-ketamine; for Breathing frequency (in words) / Minute volume (in words) / Tidal volume (in words): GHB 600 mg/kg i.v. alone or with ketamine 6 mg/kg + 1 mg/kg/min, treatments 5 min after GHB-ketamine, compared to GHB-ketamine
[2] = system: Sprague-Dawley rats; assay: Sedative effect (sleep time, righting reflex); conditions: GHB 400 mg/kg i.v. + ketamine 6 or 20 mg/kg i.v.; compared to GHB or ketamine alone
[3] = cited from earlier work
[4] = system: RBE4 cells; assay: [3H]-GHB uptake in RBE4 cells; format: cell-based, rat; conditions: for GHB uptake compared with GHB alone / GHB uptake in the presence of staurosporine: 10 mM GHB; for GHB uptake in the presence of staurosporine: 2 h pre-incubation with ketamine 40 µM or PMA 100 nM plus staurosporine
Experimental: The immortalized rat brain capillary endothelial cell line (RBE4) was kindly provided by Professor P. Couraud (Institut Cochin, Paris, France). RBE4 cells (passages 39–44) were used in all studies, as described previously. Briefly, cells were grown at 37 °C with 5% CO2 on Type-I collagen-coated flasks, and media was changed every 2–3 days. The culture medium was 1:1 α-minimum essentials medium/Hams F10 nutrient mixture supplemented with L-glutamine (2.0 mM), geneticin (300 μg/mL), human recombinant fibroblast growth factor (1 ng/mL), gentamicin (50 μg/mL), and 10% v/v fetal bovine serum (FBS). Cells were passaged using 0.25% trypsin/EDTA and seeded on individual 35 × 10 mm collagen-coated wells for uptake studies which were performed 7 days post-confluence (the time needed for formation of tight junctions).
In addition, the effect of various pre-incubation times with ketamine (0.5, 2, 4, 8 and 24 h) was also studied in these cells. […] After cell lysis, NaOH was neutralized with 0.5 mL 1.0 N HCl.

[5] = system: Sprague-Dawley rats; assay: Fatality after GHB with or without ketamine; conditions: GHB 400 mg/kg i.v. bolus + 208 mg/kg/h infusion and/or ketamine 6 mg/kg bolus + 1 mg/kg/min infusion; n = 8
[6] = GHB toxicokinetics (plasma and urine, noncompartmental analysis); conditions: for Ketamine plasma concentration in the study: ketamine 6 mg/kg i.v. bolus + 1 mg/kg/min infusion, maintained up to 1 h
[7] = parameters: method as in PMID 12667908; conditions: GHB 400 mg/kg i.v. alone; cited from earlier work
[8] = GHB blood-brain partitioning at steady state; conditions: GHB 400 mg/kg i.v. bolus + 208 mg/kg/h infusion alone; steady state 4 h
[9] = GHB 600 mg/kg i.v. bolus, ketamine 6 mg/kg i.v. bolus + 1 mg/kg/min infusion, L-lactate 66 mg/kg + 302.5 mg/kg/h, AR-C155858 1 mg/kg, SCH50911 10 mg/kg or naloxone 2 mg/kg i.v. 5 min after GHB-ketamine

Compound: CNC1(c2ccccc2Cl)CCCCC1=O (racemic) [ketamine, (±) Ketamine Hydrochloride]
- Respiratory depression (in words) [1]: did not result in any significant respiratory depression
- Effect of co-administration on GHB sleep time [2]: significant increase in sleep time
- Ketamine plasma concentrations associated with fatalities [3]: 1.8 to 27.4 µg/mL
- GHB uptake compared with GHB alone ([4]; 15 s, 2 h pre-incubation with ketamine 5, 15 or 40 µM at 37 °C): significantly increased
- GHB uptake compared with GHB alone ([4]; 15 s, ketamine 5, 15, 40 µM without pre-incubation): no significant change in GHB uptake
- GHB uptake compared with GHB alone ([4]; 0.5, 2 and 4 h pre-incubation with 40 µM ketamine): significant increases in GHB uptake
- GHB uptake in the presence of staurosporine [4]: no increase in GHB uptake
- GHB uptake compared with GHB alone ([4]; longer pre-incubation times (8 and 24 h) with 40 µM ketamine): no significant changes
- Fatality [5]: No death was observed
- Steady-state concentration of ketamine with GHB compared to ketamine alone ([6]; GHB 600 mg/kg i.v., ketamine 6 mg/kg bolus + 1 mg/kg/min for 60 min): no significant difference
- Ketamine plasma concentration in the study [6]: ~ 7 µg/mL
- Ketamine plasma concentration in the study ([6]; listed as Ketamine): 7 µg/mL

Compound: Cc1n[nH]c(C)c1Cc1sc2c(c1C(=O)N1C[C@H](O)CO1)c(=O)n(C)c(=O)n2CC(C)C [AR-C155858, 6-[(3,5-Dimethyl-1H-pyrazol-4-yl)methyl]-5-[[(4S)-4-hydroxy-2-isoxazolidinyl]carbonyl]-3-methyl-1-(2-methylpropyl)thieno [2,3-d]pyrimidine-2,4(1H,3H)-dione]
- Breathing frequency (in words) [1]: significant and rapid improvement in breathing frequency
- Minute volume (in words) [1]: completely reversed the decline in minute volume

Compound: O=C(O)CCCO [GHB, γ-hydroxybutyric acid]
- Breathing frequency (in words) [1]: decrease in breathing frequency
- Minute volume (in words) [1]: remaining unchanged
- Tidal volume (in words) [1]: compensatory increase in tidal volume
- Frequency AUEC [1, 9]: 5540 ± 1000 breaths
- Frequency Emax [1, 9]: 31 ± 5 breaths/min
- Frequency Td [1, 9]: 153 ± 12.5 min
- Cbrain (brain GHB concentration at RRR) [7]: 71.7 ± 9.89 µg/g
- Cplasma (plasma GHB concentration at RRR) [7]: 379 ± 86.2 µg/mL
- Cbrain GHB [8]: 0.21 ± 0.03 mg/g
- Fatality [5]: No death was observed

Compound: C[C@H](O)C(=O)[O-].[Na+] [L-lactate, sodium L-lactate]
- Breathing frequency (in words) [1]: significant improvement in breathing frequency and minute volume
- Minute volume (in words) [1]: significant improvement in breathing frequency and minute volume
- Tidal volume (in words) [1]: no change in tidal volume

Compound: C=CCN1CC[C@]23c4c5ccc(O)c4O[C@H]2C(=O)CC[C@@]3(O)[C@H]1C5 [Naloxone, naloxone hydrochloride dihydrate]
- Respiratory depression (in words) [1]: no effects

Compound: CCCCCCCCCCCCCC(=O)O[C@@H]1[C@@H](C)[C@@]2(O)[C@@H](C=C(CO)C[C@]3(O)C(=O)C(C)=C[C@@H]23)[C@@H]2C(C)(C)[C@]12OC(C)=O [PMA, phorbol 12-myristate 13-acetate]
- GHB uptake compared with GHB alone ([4]; 2 h pre-incubation with PMA 100 nM): significant increase in GHB uptake
- GHB uptake in the presence of staurosporine [4]: no increase in GHB uptake

Compound: CC1(C)CO[C@@H](CC(=O)O)CN1 [SCH50911, (2S)-(+)-5,5-Dimethyl-2-morpholineacetic acid]
- Breathing frequency (in words) [1]: significant improvement in breathing frequency and minute volume
- Minute volume (in words) [1]: significant improvement in breathing frequency and minute volume
- Tidal volume (in words) [1]: compensatory increase in tidal volume was also absent

Compound: CN[C@@H]1C[C@H]2O[C@@](C)([C@@H]1OC)n1c3ccccc3c3c4c(c5c6ccccc6n2c5c31)C(=O)NC4 [staurosporine]
- Effect on the increase in GHB uptake by PMA and ketamine ([4]; RBE4 cells, co-incubation during 2 h pre-incubation): significantly inhibited
